Paper PMC11822212, “High-throughput screening identifies Aurora kinase B as a critical therapeutic target for Merkel cell carcinoma” (Nature Communications, 2025)
Structures can show the parent of a compound that is named as a salt. Where two headings read alike, the source gives them in different places.

What was measured:
MCC13 cells (VN-MCC) = assay: qHTS cell viability (CellTiter-Glo, 72 h; primary and follow-up small molecule screen); format: cell-based, human
MCC26 cells (VN-MCC) = assay: as above; format: cell-based, human
UISO cells (VN-MCC) = assay: as above; format: cell-based, human
WAGA cells (VP-MCC) = assay: as above; format: cell-based, human
MKL-1 cells (VP-MCC) = assay: as above; format: cell-based, human
MKL-2 cells (VP-MCC) = assay: as above; format: cell-based, human
HACAT cells = assay: qHTS cell viability (CellTiter-Glo, 72 h; primary screen), control cell line; format: cell-based, human
HEK293T cells = assay: as above; format: cell-based, human
NIH-3T3 cells = assay: as above; format: cell-based, mouse
CRL-7250 cells = assay: as above; format: cell-based
[1] = primary high-throughput screen, viability 72 h, n = 1
[2] = area under the dose-response curve, MCC13 cells, AUC<450 = reduced viability
[3] = area under the dose-response curve, MCC26 cells, AUC<450 = reduced viability
[4] = area under the dose-response curve, UISO cells, AUC<450 = reduced viability
[5] = area under the dose-response curve, WAGA cells, AUC<450 = reduced viability
[6] = area under the dose-response curve, MKL-1 cells, AUC<450 = reduced viability
[7] = area under the dose-response curve, MKL-2 cells, AUC<450 = reduced viability
[8] = area under the dose-response curve, HACAT control cells, AUC<450 = reduced viability
[9] = area under the dose-response curve, HEK293T control cells, AUC<450 = reduced viability
[10] = area under the dose-response curve, NIH3T3 control cells, AUC<450 = reduced viability
[11] = area under the dose-response curve, CRL7250 control cells, AUC<450 = reduced viability

| SMILES | MCC13_AUC (MCC13 cells (VN-MCC); [2]) | MCC26_AUC (MCC26 cells (VN-MCC); [3]) | UISO_AUC (UISO cells (VN-MCC); [4]) | WAGA_AUC (WAGA cells (VP-MCC); [5]) | MKL1_AUC (MKL-1 cells (VP-MCC); [6]) | MKL2_AUC (MKL-2 cells (VP-MCC); [7]) | HACAT_AUC (HACAT cells; [8]) | HEK293T_AUC (HEK293T cells; [9]) | NIH3T3_AUC (NIH-3T3 cells; [10]) | CRL7250_AUC (CRL-7250 cells; [11]) | further results |
| --- | --- | --- | --- | --- | --- | --- | --- | --- | --- | --- | --- |
| c1cc(-c2sc(-c3ccncc3)c(-c3ccncc3)c2-c2ccncc2)ccn1 [NSC-75503, reference compound] |  |  |  |  |  |  |  |  |  |  | Area under the dose-response curve (AUC) MCC13 (MCC13 cells (VN-MCC); [1]): 492.9; Area under the dose-response curve (AUC) MCC26 (MCC26 cells (VN-MCC); [1]): 468.9; Area under the dose-response curve (AUC) UISO (UISO cells (VN-MCC); [1]): 456.0; Area under the dose-response curve (AUC) WAGA (WAGA cells (VP-MCC); [1]): 489.4; Area under the dose-response curve (AUC) MKL-1 (MKL-1 cells (VP-MCC); [1]): 478.1; Area under the dose-response curve (AUC) MKL-2 (MKL-2 cells (VP-MCC); [1]): 550.2; Area under the dose-response curve (AUC) HACAT (HACAT cells; [1]): 453.3; Area under the dose-response curve (AUC) HEK293T (HEK293T cells; [1]): 450.5; Area under the dose-response curve (AUC) NIH3T3 (NIH-3T3 cells; [1]): 481.5; Area under the dose-response curve (AUC) CRL7250 (CRL-7250 cells; [1]): 461.0 |
| COc1cc(C(=O)NCc2ccc(OCCN(C)C)cc2)cc(OC)c1OC [Trimethobenzamide hydrochloride] | 447.793 | 425.084 | 426.826 | 468.296 | 452.093 | 453.926 | 491.547 | 452.936 | 459.509 | 477.417 |  |
| CC(N[C@H]1CCCC[C@@H]1NC(=O)c1ccc(Cl)cc1)c1cccc2ccccc12 (stereo partly shown) [Calhex-231] |  |  |  |  |  |  |  |  |  |  | MCC13_AUC (MCC13 cells (VN-MCC)): 461.512; MCC26_AUC (MCC26 cells (VN-MCC)): 461.125; UISO_AUC (UISO cells (VN-MCC)): 470.957; WAGA_AUC (WAGA cells (VP-MCC)): 428.682; MKL1_AUC (MKL-1 cells (VP-MCC)): 380.302; MKL2_AUC (MKL-2 cells (VP-MCC)): 347.428; HACAT_AUC (HACAT cells): 466.353; HEK293T_AUC (HEK293T cells): 469.437; NIH3T3_AUC (NIH-3T3 cells): 459.862; CRL7250_AUC (CRL-7250 cells): 474.743 |
| CCOC(=O)[C@H](CCc1ccccc1)N[C@@H](C)C(=O)N1CCC[C@H]1C(=O)O [Enalapril maleate] | 497.832 | 486.615 | 510.45 | 389.514 | 398.754 | 341.505 | 461.773 | 479.159 | 481.903 | 468.406 |  |
